Results reported in patent US7429482B2, “Screening tools for discovery of novel anabolic agents” (United States of America as represented by the Department …, priority 2005, dated 2008).

Tested on: MAFbx mRNA
Assay: MAFbx mRNA levels in AR6 / C2C12.AR cells (qPCR)
Type: cell-based, mouse
Settings: dexamethasone with concurrent testosterone
Description: (A) Rats were administered test agents as indicated in the figure for 7-days, at which time animals were sacrificed and MAFbx expression was determined in gastrocnemius muscles by qPCR. Data are mean values±SEM for at least 8 animals. * p<0.05 vs vehicle, t-test. (B) AR6 cells were seeded into 6-well plates and incubated overnight in growth medium. Medium was replaced with DMEM containing 2% horse serum followed by incubation for an additional 48 hours. Hormones or vehicle (EtOH) were added to the medium and cells were incubated overnight, at which time MAFbx mRNA levels were determined by qPCR and expressed as fold-induction versus levels in cells incubated with EtOH. Data are mean values±SEM for three determinations each performed in triplicate. * p<0.05 vs. EtOH (ANOVA). (C) Effect of testosterone on MAFbx mRNA half-life. C2C12.AR cells were incubated overnight in growth medium supplemented with testosterone or vehicle (EtOH). […] Levels of MAFbx mRNA are expressed as a percentage of those at time zero. […]
RNA was quantified by absorbance at 260 nm. […] Relative changes in expression were determined using the 2^−ΔΔCt method. Taqman Assay on Demand probes (Applied Biosystems) were used for all assays except rat 18S RNA, which was quantified using the following Assay on Demand Probes: Forward: […] […]

C[C@]12CC[C@H]3[C@@H](CCC4=CC(=O)CC[C@@]43C)[C@@H]1CC[C@@H]2O [testosterone]
MAFbx mRNA level versus cells exposed to ethanol only: not significantly different
